Among the data in patent publication US20040162328A1, “Compounds of the family of 3-alkyl-(4,5-diphenyl-imidazol-1-yl) and their use as soothing agents” (priority 2001, published 2004) are inhibition values, retold here.

What is called inhibition is the drop in the measured response relative to a control, in per cent.

The assay concerns interleukin-8 secreted by normal human epidermal keratinocytes (NHEKs). Nature of the assay: Inhibition of interleukin-8 secretion by NHEK cells after stimulation with PMA as irritant agent. It is filed as cell-based. The note with it: 160 nM PMA. An excerpt:
Inhibition of the response of superficial epidermal cells to an irritant agent by assay of the interleukin-8 secreted by normal human epidermal keratinocytes (NHEKS) after stimulation with phorbol 12-myristate 13-acetate (PMA) as irritant agent.
This study uses the test developed by Wilmer [Wilmer, J. L. et al., J. invest. Dermatol., 102: 915-922 (1994)]. This test allows the evaluation of the antiirritant potential of various molecules, on a human keratinocyte (NHEK) cell line. In this test, an irritant situation is mimicked by exacerbating the production of IL-8 of the NHEKs by adding PMA to the culture medium, IL-8 being involved in initiating the keratinocyte irritation. The antiirritant effect of a molecule is then measured by means of its inhibitory action with respect to this exacerbated production.
Normal human epidermal keratinocytes (NHEKs) sold by the company Clonetics and distributed in France by the company TEBU are incubated in the presence of 160 nM of PMA for 24 hours at 37° C. In response to the PMA, the production of the chemotactic agent interleukin-8 (IL-8) is measured by enzymatic assay using an assay kit (Elisa D8050) sold by the company R&D. The absorbance values are measured using a microplate reader (MRX/Dynatech) according to the procedures supplied with the assay kit. To evaluate the antiirritant protective effect of the various compounds, the production of the chemotactic marker IL-8 by the human keratinocytes is measured in the presence of various concentrations of the test compound.
The results are expressed as a percentage of the control values after subtracting the background noise and as a percentage of inhibition of these values obtained in the presence of the compounds.

Setting [1] is: Study No. 2 (Comparative Tests), compound at 10 μM, same batch of NHEK cells, 24 hours, read-out: % inhibition of secretion of IL-8.

Read-outs that look alike come from different tables or passages of the source.

Turning to `c1ccc(-c2ncn(CCCN3CCOCC3)c2-c2ccccc2)cc1` [Example 1, 4-[3-(4,5-diphenylimidazol-1-yl)-propyl]morpholine], for the setting “Study No. 1, compound at 1 μM, NHEK, 24 hours at 37° C., read-out: % inhibition of secretion of IL-8 (at 1 μM)”, the inhibition at 1 µM was found to be 86%. Moreover, the inhibition at 10 µM (Study No. 1, compound at 10 μM, NHEK, 24 hours at 37° C., read-out: % inhibition of secretion of IL-8 (at 10 μM)) is 95% and the inhibition at 10 µM under setting [1] was found to be 35%.

As for `COC(=O)CCCCn1cnc(-c2ccccc2)c1-c1ccccc1` [Example 2, methyl (4,5-diphenyl-imidazole)-1-ylbutyl-4-carboxylate], under setting [1], the inhibition at 10 µM came out at 10%.

Turning to `O=C1c2ccccc2C(=O)N1CCCCn1cnc(-c2ccccc2)c1-c1ccccc1` [Example 3, 4-phthalimidebutyl-(4,5-diphenyl-imidazol)-1-yl], under setting [1], the inhibition at 10 µM stood at 39%.

`O=C1c2ccccc2C(=O)N1CCCn1cnc(-c2ccccc2)c1-c1ccccc1` [Example 4, 3-phthalimidepropyl-(4,5-diphenyl-imidazol)-1-yl]: the inhibition at 10 µM under setting [1] stood at 37%.

For `COC(=O)CCCn1cnc(-c2ccccc2)c1-c1ccccc1` [Example 5, methyl (4,5-diphenyl-imidazol)-1-ylpropyl-3-carboxylate], under setting [1], the inhibition at 10 µM was found to be 22%.

With `c1ccc(-c2ncn(CCCN3CCCCC3)c2-c2ccccc2)cc1` [Example 6], under setting [1], the inhibition at 10 µM worked out at 41%.

As for `c1ccc(-c2ncn(CCN3CCCCC3)c2-c2ccccc2)cc1` [JP 44 029 199, reference compound], under setting [1], the inhibition at 10 µM was below 10%.
